# Results taken from patent US7011814B2, “Systems, methods and devices for in vivo monitoring of a localized response via a radiolabeled analyte in a subject” (Sicel Technologies, Inc., priority 2001, dated 2006).
# Assays:
# [1] = cited from earlier work
# [2] = in vivo monitoring of radiolabeled analyte uptake in tissue with subcutaneous fiber optic beta radiation probes
# Experimental: The labeled glucose can be injected into the tail vein of test animals (such as rats) in a single bolus.
# FIG. 11A illustrates a response profile graph (an integrated counts (above threshold) over time profile) taken over a monitored time period of about 85 minutes (study #2). The counts were taken on a thirty seconds/sample count time frame. In this experiment, a fiber optic probe was positioned subcutaneously in “normal” or non-cancerous tissue in the back of a Fisher 344 rat. A dose of 50 μCi of ^14C-2DG was injected in the tail vein. The data was monitored for about 85 minutes. […] The initial portion of the graph has values that represent “baseline” or dark current.
# FIGS. 11B-11C illustrate graphs of data obtained using two probes, each placed subcutaneously in normal tissue of a 190 gram female Fisher 344 rat, one placed in the flank/inguinal and the other in the scapula (study #4). […] In this experiment, a bolus of 200 μCi of ^14C 2-DG was administered via intra-peritoneal (IP) injection. The data was monitored for about 96 minutes.
compound,measurement,setting,value
"O=c1[nH]cc(F)c(=O)[nH]1 [5-FU, 5-Fluorouracil]",lesions in which enhanced trapping was noted,[1]; PET with O-15 labeled water and 5-[F-18]FU,70%
O=c1[nH]cc([18F])c(=O)[nH]1 [5-[F-18]FU],"liver parenchyma uptake at the end of the acquisition time, relative to the maximum","[1]; PET, 120-minute acquisition time",25%
same,uptake in the metastases,"[1]; PET, during the 120-minute acquisition time",low and relatively constant
same,mean uptake in metastases relative to liver uptake at the same time interval,"[1]; PET, liver metastases",one-third
same,time of highest uptake in normal liver parenchyma after onset of the infusion of the tracer,"[1]; PET, normal liver parenchyma",about 30 minutes
C-14 labeled 2-deoxyglucose [^14C-2DG],time from injection at which counts reached a plateau,"[2]; 50 μCi injected in tail vein, probe subcutaneous in normal tissue in back of Fisher 344 rat, study #2, FIG. 11A",about 10 minutes
same,concentration in scapula region compared to flank region,"[2]; 200 μCi bolus intra-peritoneal, two probes subcutaneous in normal tissue, 190 gram female Fisher 344 rat, monitored about 96 minutes, study #4, FIG. 11B",higher concentrations were obtained in the scapula region compared to the flank region
same,time range in which peak or maxima point of concentration is reached (observed points),"[2]; 200 μCi intra-peritoneal, flank/inguinal normal tissue probe, study #4, FIG. 11C",20 to 50 min
